Experimental findings from patent US6756389B2, “Pharmaceutically active compounds and methods of use” (Cambridge Neuroscience, Inc., priority 1996, dated 2004) are described below.

Counter-ions that a name gives are not always drawn.

System in the first data set: not given
Test: not given
Conditions: not given
Consider `Cl.N=C(N)N1[C@@H](c2ccccc2)CC[C@H]1c1ccccc1`, for which the melting point (in general, the temperature, or range, at which the solid turns liquid) fell in the range of 242 to 244 °C.

With `Cl.N=C(Nc1ccccc1)N1[C@@H](c2ccccc2)CCC[C@H]1c1ccccc1`, the melting point fell in the range of 82 to 84 °C.

`CC(C)c1ccc([C@H]2CCC[C@@H](c3ccc(C(C)C)cc3)N2C(=N)N)cc1.Cl` [Example 2, N-carboximidamide-r-2,c-6-di(4-isopropylphenyl)piperidine] showed a melting point of 197 to 199 °C.

For `Cc1ccc([C@H]2CCC[C@H](c3ccc(C)cc3)N2C(=N)N)cc1.Cl`, the melting point came to 120 °C.

`Cc1ccc([C@H]2CCC[C@@H](c3ccc(C)cc3)N2C(=N)N)cc1` (as salt: mesylate) [Example 1, N-carboximidamide-r-2, c-6-di(4-methylphenyl)piperidine] yielded a melting point of 183 to 185 °C.

The subject of a further data set is DBA/2 mice (audiogenic seizures). As to the kind of experiment: In vivo anticonvulsant activity in the DBA/2 mouse model (mouse audiogenic assay). As to conditions: 10 mg/kg intraperitoneally 30 minutes prior to auditory stimulus (12 KHz sine wave, 110-120 db, 60 seconds), inhibition relative to vehicle controls. The protocol:
As discussed above, preferred compounds of the invention are active in a standard anticonvulsant in vivo audiogenic test, such as the audiogenic mouse assay of Example 6 which follows, where DBA/2 mice about 20-23 days old are injected intraperitoneally with a test compound 30 minutes prior to being placed in a bell jar with exposure to auditory stimulus of 12 KHz sine wave at 110-120 db. References herein in vivo “audiogenic assay” are intended to refer to that protocol. […] As discussed above, activity in the audiogenic assay has been recognized as indicative that a test compound has neuroprotective properties. See, e.g., M. Tricklebank et al., European Journal of Pharmacology, supra; T. Seyfried, Federation Proceedings, supra.
Compounds were tested for their effectiveness in preventing seizures in DBA/2 mice which have a unique sensitivity to auditory stimulation. Exposure to loud high-frequency sounds can trigger seizure activity in these animals. […]
Mice were injected intraperitoneally with the compound specified in Table I below or with vehicle control, 30 minutes prior to being placed in a bell jar and turning on the auditory stimulus (12 KHz sine wave at 110-120 db). […] The auditory stimulus was left on for 60 seconds and mice reactions were timed and recorded. Percentage inhibition was determined with reference to vehicle controls.
Regarding `Cc1ccc([C@H]2CCC[C@@H](c3ccc(C)cc3)N2C(=N)N)cc1` [Example 1, N-carboximidamide-r-2, c-6-di(4-methylphenyl)piperidine], the “Audiogenic Response % Inhib.” value worked out at 42%.

Consider `CC(C)c1ccc([C@H]2CCC[C@@H](c3ccc(C(C)C)cc3)N2C(=N)N)cc1.Cl` [Example 2, N-carboximidamide-r-2,c-6-di(4-isopropylphenyl)piperidine], for which the “Audiogenic Response % Inhib.” value is 69%.
